In patent US4536502A (priority 1982, dated 1985):

Legend:
Peronospora tabacina = assay: Greenhouse test on tobacco mildew; type: in vivo, Peronospora tabacina (on Nicotiana tabacum, Samson variety); conditions: for inhibition at 15 µg/mL: dose of 15 mg/liter; for inhibition at 500 µg/mL: dose of 500 mg/liter
Source text: Greenhouse test on tobacco mildew
The procedure of the previous example is followed, except that the plants are tobacco plants (Nicotiana tabacum) of the Samson variety, and that these plants are contaminated with spores of Peronospora tabacina, which is responsible for tobacco mildew.
Under these conditions, it was observed that, for the compounds or mixtures of compounds described in the above examples, the minimum inhibitory concentrations causing from 95 to 100% inhibition of the fungus in question (MIC 95-100) are respectively as follows:
In this experiment, the observed percentage inhibition of the development of the fungus in question was between 20% and 90%: […]

Phytophthora infestans = assay: whole plant or invertebrate; type: in vivo; conditions: in Solanum lycopersicum, read-out: percentage inhibition of the development of the fungus
[1] = tested on: Tetranychus urticae koch, parthenogenetic females; assay: Acaricidal activity by contact-ingestion; type: in vivo; conditions: bean leaves treated by dipping, three days after contamination, average of two experiments
Experimental: Acaricidal activity by contact-ingestion
(foliage treated by dipping: Tetranychus urticae koch, parthenogenetic females).
An aqueous emulsion of the active ingredient to be tested is prepared by grinding the latter, in a Potter mill, in water containing 0.02% of Tween 80. The aqueous emulsion is then brought to the desired concentration by dilution with water containing 0.01% of Scurol O.
Bean plants (Phaseolus vulgaris--Contender variety) at the "cotyledonary leaf" stage are used. Each plant is treated by dipping the leaves for 10 seconds in the aqueous emulsion containing the active ingredient to be tested, at the desired concentration, two plants being used for each concentration. The experiment was carried out for active ingredient concentrations ranging from 2,000 mg/liter to 10 mg/liter. The bean plants are kept alive by immersing the roots and the base of the stem in distilled water.
After the surface of the foliage has dried, contamination is carried out by depositing, on each bean leaf, a highly contaminated leaf fragment produced by mite breeding. This leaf fragment is removed after 24 hours.
Three days after contamination, the number of dead mites and the number of living mites are counted under a binocular magnifying glass.
The percentage mortality is thus determined for each concentration (average of two experiments). […]

[2] = read-out: percentage inhibition of the development of the fungus

In the case of N#Cc1nc2ccccc2[nH]1 [2-Cyanobenzimidazole, 2-cyanobenzimidazole, reference compound], the inhibition at 1000 µg/mL (Peronospora tabacina; dose of 1,000 mg/liter, read-out: % inhibition (antifungal activity)) is reported as 0%.
Cc1c([N+](=O)[O-])ccc2c1nc(C#N)n2S(=O)(=O)N(C)C [Compound 64] showed an inhibition at 15 µg/mL (Peronospora tabacina; [2]) of 20 to 90%.
With N#Cc1nc2c(Cl)cc(Cl)cc2n1S(=O)(=O)N1CCCC1 [Compound 57] the inhibition at 15 µg/mL (Peronospora tabacina; [2]) was 20 to 90%.
CN(C)S(=O)(=O)n1c(C#N)nc2c(N)cccc21 [Compound 42] showed an inhibition at 500 µg/mL (Peronospora tabacina; [2]) of 20 to 90%.
For COc1cc2c(nc(C#N)n2S(=O)(=O)N(C)C)c([N+](=O)[O-])c1OC [Compound 28], the inhibition at 500 µg/mL (Phytophthora infestans) was 20 to 90% and the inhibition at 500 µg/mL (Peronospora tabacina; [2]) was 20 to 90%.
CN(C)S(=O)(=O)n1c(C#N)nc2c(C(F)(F)F)cc(Cl)cc21 [Compound 61] was tested, and the “LC90, concentration which causes 90% mortality of the mites” value [1] was 2,000 mg/liter.
Molecule CS(=O)(=O)n1c(C#N)nc2c(Cl)cc(Cl)cc21 [Compound 17] has an inhibition at 15 µg/mL (Phytophthora infestans) of 20 to 90%.
For CN(C)S(=O)(=O)n1c(C#N)nc2c(C(F)(F)F)cc(C(F)(F)F)cc21 [Compound 70], the “LC90, concentration which causes 90% mortality of the mites” value [1] was 10 mg/L.
Cc1cc(Br)cc2c1nc(C#N)n2S(=O)(=O)N(C)C [Compound 43] gave an inhibition at 500 µg/mL (Phytophthora infestans) of 20 to 90%.
In the case of Cc1c(Cl)ccc2c1nc(C#N)n2S(=O)(=O)N(C)C [Compound 50], the inhibition at 500 µg/mL (Phytophthora infestans) is reported as 20 to 90%.
For CS(=O)(=O)n1c(C#N)nc2ccccc21 [Compound 16], the inhibition at 15 µg/mL (Peronospora tabacina; [2]) was 20 to 90%.
Work on CC(C)S(=O)(=O)n1c(C#N)nc2c(Cl)cccc21 [Compound 21] yielded an inhibition at 8 µg/mL (Peronospora tabacina; dose of 8 mg/liter, read-out: percentage inhibition of the development of the fungus) of 20 to 90%.
CN(C)S(=O)(=O)n1c(C#N)nc2c(Cl)c(Cl)ccc21 [Compound 45] showed an inhibition at 4 µg/mL (Phytophthora infestans) of 20 to 90%.
Cc1cc2nc(C#N)n(S(=O)(=O)N(C)C)c2cc1C [Compound 8] gave an inhibition at 500 µg/mL (Phytophthora infestans) of 20 to 90%.
CC(C)S(=O)(=O)n1c(C#N)nc2ccccc21 [Compound 22] gave an inhibition at 15 µg/mL (Peronospora tabacina; [2]) of 20 to 90%.
In the case of CN(C)S(=O)(=O)n1c(C#N)nc2c(Br)cc(Br)cc21 [Compound 39], the inhibition at 8 µg/mL (Phytophthora infestans) is reported as 20 to 90%.
CN(C)S(=O)(=O)n1c(C#N)nc2cc(C(C)(C)C)ccc21 [Compound 11] showed an inhibition at 500 µg/mL (Phytophthora infestans) of 20 to 90%.
